Reference: ChEMBL document CHEMBL3870333, “Synthesis of Keap1-phosphorylated p62 and Keap1-Nrf2 protein-protein interaction inhibitors and their inhibitory activity” (Bioorg Med Chem Lett, 2016)
One block for each molecule: values may come before it.

Key:
Keap1/Nrf2 = Keap1/Nrf2 (Homo sapiens, UniProt Q14145); assay: Inhibition of recombinant GST-His-tagged Keap1-DC domain (321 to 609 residues) (unknown origin) expressed in Escherichia coli/FAM-labeled Nrf2 (unknown origin) interaction measured after 30 mins by fluorescence polarization assay
[1] = biological target: Sequestosome-1/Kelch-like ECH-associated protein 1 (Homo sapiens, UniProt Q14145); assay: Inhibition of recombinant GST-His-tagged Keap1-DC domain (321 to 609 residues) (unknown origin) expressed in Escherichia coli/FAM-labeled phosphorylated p62 (unknown origin) interaction measured after 30 mins by fluorescence polarization assay
Homo sapiens = species on record: Homo sapiens; assay: Selectivity index, ratio of IC50 for recombinant GST-His-tagged Keap1-DC domain (321 to 609 residues) (unknown origin) expressed in Escherichia coli/FAM-labeled Nrf2 (unknown origin) interaction to IC50 for recombinant GST-His-tagged Keap1-DC domain (321 to 609 residues) (unknown origin) expressed in Escherichia coli/FAM-labeled phosphorylated p62 (unknown origin) interaction

Sequence of Sequestosome-1/Kelch-like ECH-associated protein 1 (Q14145 whole entry, the tested form may be a part): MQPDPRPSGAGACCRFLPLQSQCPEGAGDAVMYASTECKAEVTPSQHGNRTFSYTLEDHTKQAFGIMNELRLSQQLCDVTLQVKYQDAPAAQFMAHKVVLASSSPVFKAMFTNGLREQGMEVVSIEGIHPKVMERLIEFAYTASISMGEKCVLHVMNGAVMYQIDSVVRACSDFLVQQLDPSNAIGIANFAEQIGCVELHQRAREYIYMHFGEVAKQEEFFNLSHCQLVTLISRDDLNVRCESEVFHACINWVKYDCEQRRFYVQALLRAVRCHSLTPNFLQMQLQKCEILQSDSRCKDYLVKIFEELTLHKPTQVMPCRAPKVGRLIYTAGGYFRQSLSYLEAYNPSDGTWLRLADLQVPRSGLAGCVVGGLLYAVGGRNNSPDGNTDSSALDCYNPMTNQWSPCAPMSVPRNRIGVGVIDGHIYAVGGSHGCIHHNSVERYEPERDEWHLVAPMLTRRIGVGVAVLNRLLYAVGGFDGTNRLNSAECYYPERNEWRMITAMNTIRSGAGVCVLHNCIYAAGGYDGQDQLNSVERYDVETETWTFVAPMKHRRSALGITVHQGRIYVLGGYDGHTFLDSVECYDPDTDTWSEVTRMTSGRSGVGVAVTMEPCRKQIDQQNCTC
Sequence of Sequestosome-1/Kelch-like ECH-associated protein 1 (Q13501 whole entry, further chain, the tested form may be a part): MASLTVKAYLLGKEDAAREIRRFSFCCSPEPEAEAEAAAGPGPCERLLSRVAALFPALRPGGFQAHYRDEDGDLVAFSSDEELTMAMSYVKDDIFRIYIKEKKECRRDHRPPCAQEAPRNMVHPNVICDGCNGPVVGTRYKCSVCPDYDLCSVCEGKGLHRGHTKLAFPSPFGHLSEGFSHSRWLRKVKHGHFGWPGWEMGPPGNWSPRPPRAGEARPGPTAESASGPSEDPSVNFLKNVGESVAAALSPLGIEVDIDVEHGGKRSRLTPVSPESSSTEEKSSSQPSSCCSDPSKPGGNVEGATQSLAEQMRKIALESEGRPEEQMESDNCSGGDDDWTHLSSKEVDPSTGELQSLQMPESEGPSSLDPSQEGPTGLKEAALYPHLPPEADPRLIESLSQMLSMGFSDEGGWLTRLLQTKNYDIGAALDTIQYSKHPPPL
Sequence of Keap1/Nrf2 (Q16236 whole entry, the tested form may be a part): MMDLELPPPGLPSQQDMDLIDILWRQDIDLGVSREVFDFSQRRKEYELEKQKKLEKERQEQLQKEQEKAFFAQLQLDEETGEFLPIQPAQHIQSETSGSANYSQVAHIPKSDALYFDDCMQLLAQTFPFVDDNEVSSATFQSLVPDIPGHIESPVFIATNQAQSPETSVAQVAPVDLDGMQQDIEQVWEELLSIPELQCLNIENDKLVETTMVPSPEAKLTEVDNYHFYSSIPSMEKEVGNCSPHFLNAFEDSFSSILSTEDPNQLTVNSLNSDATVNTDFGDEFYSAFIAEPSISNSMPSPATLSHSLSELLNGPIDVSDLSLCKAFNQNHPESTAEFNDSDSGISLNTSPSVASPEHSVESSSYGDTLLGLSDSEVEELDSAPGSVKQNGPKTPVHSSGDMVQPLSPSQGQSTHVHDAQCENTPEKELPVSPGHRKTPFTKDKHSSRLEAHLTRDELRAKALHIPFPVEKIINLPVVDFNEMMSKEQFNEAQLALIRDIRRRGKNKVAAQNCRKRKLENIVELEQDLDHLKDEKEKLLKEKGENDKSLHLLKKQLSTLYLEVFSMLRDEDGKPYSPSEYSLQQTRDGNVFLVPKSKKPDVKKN
Sequence of Keap1/Nrf2 (Q14145 whole entry, the tested form may be a part): as the sequence (Q14145 whole entry, the tested form may be a part) above

Structure (SMILES): COc1ccc(S(=O)(=O)Nc2cc(CC(C)=O)c(NS(=O)(=O)c3ccc(OC)cc3)c3ccccc23)cc1
IC50 (Keap1/Nrf2): 3200 nM | IC50 [1]: 2400 nM | Ratio IC50 (Homo sapiens): 1.3

Structure (SMILES): CCOc1ccc(S(=O)(=O)Nc2cc(CC(C)=O)c(NS(=O)(=O)c3ccc(OCC)cc3)c3ccccc23)cc1
IC50 (Keap1/Nrf2): 6200 nM | IC50 [1]: 1500 nM | Ratio IC50 (Homo sapiens): 4.1

Structure (SMILES): CCOc1ccc(S(=O)(=O)Nc2cc(SCC(=O)OC)c(NS(=O)(=O)c3ccc(OCC)cc3)c3ccccc23)cc1
IC50 (Keap1/Nrf2): 720 nM | IC50 [1]: 370 nM | Ratio IC50 (Homo sapiens): 1.9

Structure (SMILES): CCOc1ccc(S(=O)(=O)Nc2cc(Sc3nc[nH]n3)c(NS(=O)(=O)c3ccc(OCC)cc3)c3ccccc23)cc1
IC50 (Keap1/Nrf2): 1300 nM | IC50 [1]: 1000 nM | Ratio IC50 (Homo sapiens): 1.3

IC50 (Keap1/Nrf2): 150 nM | Ratio IC50 (Homo sapiens): 1
Structure (SMILES): CCOc1ccc(S(=O)(=O)Nc2cc(CCCC(=O)O)c(NS(=O)(=O)c3ccc(OCC)cc3)c3ccccc23)cc1

Structure (SMILES): CCOc1ccc(S(=O)(=O)Nc2cc(CCC(=O)O)c(NS(=O)(=O)c3ccc(OCC)cc3)c3ccccc23)cc1
IC50 (Keap1/Nrf2): 230 nM | IC50 [1]: 190 nM | Ratio IC50 (Homo sapiens): 1.2

Structure (SMILES): CCOc1ccc(S(=O)(=O)Nc2cc(SCC(=O)O)c(NS(=O)(=O)c3ccc(OCC)cc3)c3ccccc23)cc1
IC50 (Keap1/Nrf2): 200 nM | IC50 [1]: 180 nM | Ratio IC50 (Homo sapiens): 1.1

Structure (SMILES): CCOc1ccc(S(=O)(=O)Nc2cc(CC(=O)O)c(NS(=O)(=O)c3ccc(OCC)cc3)c3ccccc23)cc1
IC50 (Keap1/Nrf2): 320 nM | IC50 [1]: 230 nM | Ratio IC50 (Homo sapiens): 1.4

Structure (SMILES): CCOc1ccc(S(=O)(=O)Nc2ccc(NS(=O)(=O)c3ccc(OCC)cc3)c3ccccc23)cc1
IC50 (Keap1/Nrf2): 2800 nM | IC50 [1]: 1400 nM | Ratio IC50 (Homo sapiens): 2
